Tests used:
[1] = tested on: PI3Kβ/α; test: pAKT in PC3 cell line; assay type: cell-based
[2] = tested on: rheumatoid arthritis; conditions: 0.5-5 mg, twice a day, PO ref 27; cited from earlier work
[3] = tested on: human B and T cell cocultures; conditions: BioMAP T:B cocultures ref 10; cited from earlier work

Row | SMILES | IC50 [1] [nM] | efficacy in rheumatoid arthritis clinical trials [2] | IgG production [3]
1 | C[C@H](Nc1ncnc2nc[nH]c12)c1cc2cccc(Cl)c2c(=O)n1-c1ccccc1 [duvelisib] | […] | efficacy could not be demonstrated | 
2 | [O-][n+]1cccc(-c2nc3c(Cl)cccc3cc2[C@@H](Nc2ncnc3cccnc23)C(F)(F)F)c1 [seletalisib] |  |  | attenuation of IgG production

Source: publication PMC6957347 (Pharmacology Research & Perspectives, 2020)
